Test results reported in patent US6395906B1, “Intermediates to pesticidal 1-arylpyrazoles” (Rhone-Poulenc Inc., priority 1995, dated 2002).

Key:
Type in all cases: in vivo
[1] = system: black cutworm (Agrotis ipsilon); test: Black cutworm systemic test (BCW-Sys); conditions: soil drench 10.0 ppm, corn seedling clipped ten days after treatment; mortality 4 days after infestation
From the text: (§1) For cotton aphid systemic tests and black cutwork—systemic tests, the water-acetone-DMF-emulsifier solution was adjusted for a treatment rate of 10.0 ppm soil concentration.
Black cutworm—systemic test (BCW-Sys): Corn seeds were placed on top of the soil surface in pots containing moist soil. The test compound solution was applied as a drench to the top of the soil and seeds for a treatment rate equivalent to 10.0 ppm soil concentration. As an untreated control, an aliquot of water-acetone-DMF-emulsifier solution containing no test compound was applied in a similar manner. The soil surface and seeds were covered with moist soil. The pots were held in the greenhouse for the duration of the bioassay. Ten days after treatment, the corn seedling was clipped and placed in a plastic cup with 2 late second to early third instar black cutworm larvae. Mortality was assessed visually 4 days after infestation.

[2] = system: southern root-knot nematode (Meloidogyne incognita); test: Southern root-knot nematode (SRKN) soil test; conditions: soil treatment 23 kg/ha; tomato or cotton root galling rated after 2-3 weeks
Method: (§2) For the tick, aphids, souther armyworm, tobacco budworm, house fly, Mexican bean beetle, American cockroach, cat flea, souther corn rootworm, western corn rootworm, black cutworm, and southern root-knot nematode, a solution or suspension was prepared by adding the test compound to a solution of dimethylformamide, acetone, emulsifiers which are alkylaryl polyether alcohols organic sulfonates, and water. The result was a 100 or 500 ppm concentration of the test compound.
For the southern root-knot nematode tests, the water-acetone-DMF-emulsifier solution was adjusted for a treatment rate of 23 kg/ha soil concentration.
Southern root-knot nematode (SRKN): Eggs and second stage juveniles (J2s) of southern root-knot nematodes were obtained from infected roots of reared tomato plants. Pots containing moist soil were treated with the test compound solution for a treatment rate of 23 kg/ha. As an untreated control, an aliquot of a water-acetone-DMF-emulsifier solution containing no test compound was applied in a similar manner. Immediately after treatment, eggs or J2s of southern root-knot nematode were added to the treated soil. For test with cotton, the seeds were placed on top of the soil the day of treatment and inoculation. For the tests with tomato, the seedlings were transplanted in the pot three days after treatment. The pots were kept in the greenhouse for 2-3 weeks. At the termination of the test, roots of the tomato or cotton seedlings were evaluated for galling on a rating scale from 1 to 5 with one equal to severe galling, relative to untreated control, and five to no galling, i.e., complete control.

[3] = system: greenbug aphid (Schizaphis graminum); test: Greenbug aphid systemic test (GA-Sys); conditions: soil drench 10 or 25 ppm, sorghum; aphid control rated one and three days after infestation
From the text: For the greenbug aphid systemic test, the water-acetone-DMF-emulsifier solution was adjusted for a treatment rate of 10 or 25 ppm soil concentration.
Greenburg aphid—systemic test (GA-Sys): Sorghum seeds were placed on top of the soil surface in pots containing moist soil. The test compound solution was applied as a drench to the top of the soil and seeds for a treatment rate equivalent to 10 or 25 ppm soil concentration. As an untreated control, an aliquot of a water-acetone-DMF-emulsifier solution containing no test compound was applied in a similar manner. The soil surface and seeds were covered with moist soil. The pots were held in the greenhouse for the duration of the bioassay. When the sorghum seeds germinated, greenbug aphids were sprinkled evenly over the sorghum pots to about 50 aphids per pot. The plants were rated for aphid control one and three days after infestation.

[4] = system: western corn rootworm (Diabrotica virgifera virgifera); test: Western corn rootworm (WCRW) soil test; conditions: soil concentration 0.15 or 0.5 ppm; neonate larvae, mortality six days after infestation
Method: as §2
For the western corn rootworm test, the water-acetone-DMF-emulsifier solution was adjusted for a treatment rate of 0.15 or 0.5 ppm.
Western corn rootworm (WCRW): The 500 ppm test formulation was applied to dry sandy loam soil contained in a glass jar for a soil concentration of 0.15 or 0.5 ppm. As an untreated control, an aliquot of a water-acetone-DMF-emulsifier solution containing no test compound was applied in a similar manner. After incubating covered for 24 hours, the soil was mixed and four germinated corn seedlings were added to the jar. Ten neonate western corn rootworm larvae were placed in the jar. Six days after infestation, mortality was assessed by Berlese funnel extraction.

[5] = system: house fly (Musca domestica); test: House fly (HF) bait test; conditions: sucrose bait, 100 or 250 ppm; adult flies, mortality after 24 hours
Method: as §2
For house fly tests, the water-acetone-DMF-emulsifier solution was adjusted with a 20% by weight aqueous solution of sucrose to provide a final 100 or 250 ppm concentration of the test compound.
House fly (HF): Four to six day old adult house flies were used. The files were immobilized by anesthetizing with carbon dioxide. A bait cup was prepared which contained the 100 or 250 ppm test compound formulation/sucrose solution and one or two absorbent cotton pad(s). As an untreated control, a water-acetone-DMF-emulsifier-sucrose solution containing no test compound was applied in a similar manner. The bait cup was introduced inside the cage prior to admitting 12-25 anesthetized flies. Mortality was assessed after 24 hours.

[6] = system: American cockroach (Periplaneta americana); test: American cockroach (ACR) treated food pellet test; conditions: food pellets with 500 ppm formulation; nymphs, contact and feeding mortality 1 and 5 days after infestation
Method: as §2
American cockroach (ACR): Cat food or dog food pellets were added to jars containing 1-2 mls of the 500 ppm test formulation. As an untreated control, an aliquot of a water-acetone-DMF-emulsifier solution containing no test compound was applied in a similar manner. After 48 hours, roach nymphs were added to the jar. Contact and feeding mortally was assessed 1 and 5 days after infestation.

[7] = system: southern corn rootworm (Diabrotica undecimpunctata howardi); test: Southern corn rootworm (SCRW) soil test; conditions: soil concentration 2.5, 5, 6.75 or 10 ppm; mortality eight days after infestation
Method: as §2
For southern corn rootworm and black cutworm tests, the water-acetone-DMF-emulsifier solution was adjusted for a treatment rate of 2.5, 5, 6.75 or 10 ppm.
Southern corn rootworm (SCRW), Black cutworm (BCW): Corn seeds were placed in a glass jar and covered with dry sandy loam soil. The 500 ppm test formulation was applied for a soil concentration of 2.5, 5, 6.75 or 10 ppm. As an untreated control, an aliquot of a water-acetone-DMF-emulsifier solution containing no test compound was applied in a similar manner. After incubating covered for 24 hours, the soil was mixed and inoculated with approximately 25 southern corn rootworm eggs. Following an additional 48 hours, two late second to early third instar black cutworms were placed in the jar with a portion of insect diet. Eight days after infestation, mortality was assessed visually for cutworm and by Berlese funnel extraction for rootworm.

[8] = system: cotton aphid (Aphis gossypii); test: Cotton aphid (CA) foliar spray test; conditions: cotton plants wet to runoff, 100 or 500 ppm; dead aphids counted after three days
Method: as §2
Buckthorn aphid (BA) or cotton aphid (CA): Adult and nymphal stages of buckthorn or cotton aphid were reared on potted dwarf nasturtium or cotton plants, respectively. Plants infested with 100-150 aphids were wet to runoff with the 100 or 500 ppm test compound formulation. As an untreated control, a water-acetone-DMF-emulsifier solution containing no test compound was also applied to runoff to infested plants. The treated plants were stored for one day for buckthorn aphid and three days for cotton aphid, after which the dead aphids were counted.

[9] = system: tobacco budworm (Heliothis virescens); test: Tobacco budworm (TBW) treated cotton leaf test; conditions: cotton leaves, 100 ppm; second instar larvae, five days
Method: as §2
Tobacco budworm (TBW): Cotton leaves were wet to runoff with the 100 ppm test compound formulation. As an untreated control, a water-acetone-DMF-emulsifier solution containing no test compound was also applied wet to runoff to cotton leaves. Ten randomly selected second instar tobacco budworm larvae were introduced into plastic containers in which moist dental wicks and the dry treated leaves had been placed. The cups were closed and held for five days. Larvae which were unable to move the length of the body, even upon stimulation by prodding, were considered dead.

[10] = system: southern armyworm (Spodoptera eridania); test: Southern armyworm (SAW) treated bean leaf test; conditions: bean leaves, 100 or 500 ppm; second instar larvae, five days
Method: as §2
(§3) Southern armyworm (SAW), Mexican bean beetle (MBB): Bean leaves were wet to runoff with the 100 or 500 ppm test compound formulation. As an untreated control, a water-acetone-DMF-emulsifier solution containing no test compound was also applied wet to runoff to bean leaves. Five or six randomly selected second instar southern armyworn larvae or Mexican bean bettle larvae were introduced into each plastic container with the dry treated leaves. The container was closed and held for five days. Larvae which were unable to move the length of the body, even upon stimulation by prodding, were considered dead.

[11] = system: cotton aphid (Aphis gossypii); test: Cotton aphid systemic test (CA-Sys); conditions: soil drench 10.0 ppm, aphid control rated three and six days after infestation
From the text: as §1
Cotton aphid—systemic test (CA-Sys): Cotton seeds were placed on top of the soil surface in pots containing moist soil. The test compound solution was applied as a drench to the top of the soil and seeds for a treatment rate equivalent to 10.0 ppm soil concentration. As an untreated control, an aliquot of a water-acetone-DMF-emulsifier solution containing no test compound was applied in a similar manner. The soil surface and seeds were covered with moist soil. The pots were held in the greenhouse for the duration of the bioassay. When the cotyledons of the cotton were expanded (approximately 7 days after planting), the cotton was infested with approximately 25 cotton aphids (mixed population). The plant were rated for aphid control three and six days after infestation.

[12] = system: Mexican bean beetle (Epilachna varivestis); test: Mexican bean beetle (MBB) treated bean leaf test; conditions: bean leaves, 100 or 500 ppm; second instar larvae, five days
Method: as §2, §3

Row | Structure (SMILES) | BCW-Sys [1] | SRKN [2] | GA-Sys [3] | WCRW [4] | ACR [6] | CA [8] | TBW [9] | also measured
1 | CC(O)c1c(SC(F)(F)F)c(C#N)nn1-c1c(Cl)cc(C(F)(F)F)cc1Cl (centres unmarked) [Compound 8, 3-Cyano-1-(2,6-dichloro-4-trifluoromethylphenyl)-5-(1-hydroxy)ethyl-4-trifluoromethylthiopyrazole] | + (active against 1 or more insects described above up to 100% mortality. This activity is indicated by a “+”) | – | – | – | – | – | – | –
2 | N#Cc1nn(-c2c(Cl)cc(C(F)(F)F)cc2Cl)c(CO)c1[S+]([O-])C(F)(F)F (centres unmarked) [Compound 12, 3-Cyano-1-(2,6-dichloro-4-trifluoromethylphenyl)-5-(hydroxy)methyl-4-trifluoromethylsulfinylpyrazole] | + (active against 1 or more insects described above up to 100% mortality. This activity is indicated by a “+”) | + (active against 1 or more insects described above up to 100% mortality. This activity is indicated by a “+”) | + (active against 1 or more insects described above up to 100% mortality. This activity is indicated by a “+”) | – | – | – | – | –
3 | COC(C#N)c1c([S+]([O-])C(F)(F)F)c(C#N)nn1-c1c(Cl)cc(C(F)(F)F)cc1Cl (centres unmarked) [Compound 14, 3-Cyano-5-{(1-cyano-1-methoxy)methyl}-1-(2,6-dichloro-4-trifluoromethylphenyl)-4-trifluoromethylsulfinylpyrazole] | – | + (active against 1 or more insects described above up to 100% mortality. This activity is indicated by a “+”) | – | + (active against 1 or more insects described above up to 100% mortality. This activity is indicated by a “+”) | + (active against 1 or more insects described above up to 100% mortality. This activity is indicated by a “+”) | + (active against 1 or more insects described above up to 100% mortality. This activity is indicated by a “+”) | + (active against 1 or more insects described above up to 100% mortality. This activity is indicated by a “+”) | HF [5]: + (active against 1 or more insects described above up to 100% mortality. This activity is indicated by a “+”); SCRW [7]: + (active against 1 or more insects described above up to 100% mortality. This activity is indicated by a “+”); SAW [10]: + (active against 1 or more insects described above up to 100% mortality. This activity is indicated by a “+”)
4 | N#Cc1nn(-c2c(Cl)cc(C(F)(F)F)cc2Cl)c(C(O)C(F)(F)F)c1SC(F)(F)F (centres unmarked) [Compound 17, 3-Cyano-1-(2,6-dichloro-4-trifluoromethylphenyl)-5-(1-hydroxy-2,2,2-trifluoroethyl)-4-trifluoromethylthiopyrazole] | – | – | – | + (active against 1 or more insects described above up to 100% mortality. This activity is indicated by a “+”) | + (active against 1 or more insects described above up to 100% mortality. This activity is indicated by a “+”) | – | – | CA-Sys [11]: + (active against 1 or more insects described above up to 100% mortality. This activity is indicated by a “+”)
5 | C=C(OC(C)=O)c1c(S(=O)(=O)C(F)(F)F)c(C#N)nn1-c1c(Cl)cc(C(F)(F)F)cc1Cl [Compound 21, 3-Cyano-1-(2,6-dichloro-4-trifluoromethylphenyl)-5-(1-acetoxyethenyl)-4-trifluoromethylsulfonylpyrazole] | – | – | + (active against 1 or more insects described above up to 100% mortality. This activity is indicated by a “+”) | + (active against 1 or more insects described above up to 100% mortality. This activity is indicated by a “+”) | – | + (active against 1 or more insects described above up to 100% mortality. This activity is indicated by a “+”) | + (active against 1 or more insects described above up to 100% mortality. This activity is indicated by a “+”) | MBB [12]: + (active against 1 or more insects described above up to 100% mortality. This activity is indicated by a “+”)
